Assay results reported in patent US8664275B2, “Crystalline form of Bimatoprost, preparation method and use thereof” (Shanghai Techwell Biopharmaceutical Co., Ltd., priority 2009, dated 2014).

Assay: Comparison of stability: sealed storage at 40° C., HPLC purity
Assay type: physicochemical
Settings: for degradation in stability test: sealed storage for 4 days at 40° C.
Source text: The crystalline form A of Bimatoprost of the invention has specific stability, which is favorable for storage. The inventors compare the stability of the crystalline form A prepared by the method of the invention with that of the crystalline form B prepared in the prior art by stability test. […] Degradation products of the crystalline form B include a compound II and a compound III. […] As used herein, the term “HPLC purity” refers to the percentage of peak area of the compound as shown in formula I that is subject to HPLC detection and then area normalization according to the obtained chromatogram in the total peak area. The HPLC detection method is as follows: Chromatographic column: 4.6×150 mm 3 μm C18 column; column temperature: 35° C.; mobile phase: A: acetonitrile: water (20 mM potassium phosphate buffer solution; pH=2.8) 20:80; B: acetonitrile: water (20 mM potassium phosphate buffer solution; pH=2.8) 40:60; gradient elution conditions: A:B=100: 0, 1 min; A:B=100:0-40:60, 16 min; A:B=40:60, 4 min; A:B=40:60-100:0, 1 min. Flow rate: 1 ml/min; main peak retention time: around […]; sample volume 15 μl; column temperature: 35° C.±5° C.; detection wavelength: 210 nm; running time: 40 min. A sample of the crystal A of Bimatoprost prepared by Example 4 was taken (0.8 g; HPLC purity: 99.7%) and divided into 4 parts of equal amount; and the 4 parts were respectively hermetically placed under 40° C. for 1 day, 2 days, 3 days and 4 days and then sampled for analysis, wherein HPLC purity was 99.7%, 99.7%, 99.7% and 99.7% respectively. A sample of the crystal B of Bimatoprost prepared by Example 2 was taken (0.8 g; HPLC purity: 99.6%) and divided into 4 parts of equal amount; and the 4 parts were respectively hermetically placed under 40° C. for 1 day, 2 days, 3 days and 4 days and then sampled for analysis, wherein HPLC purity was 99.4%, 99.2%, 99.1% and 98.7% respectively.

CCNC(=O)CCC/C=C\C[C@@H]1[C@@H](/C=C/[C@@H](O)CCc2ccccc2)[C@H](O)C[C@@H]1O [crystalline form A, (Z)-7-[(1R,2R,3R,5S)-3,5-dihydroxyl-2-[(E,3S)-3-hydroxyl-5-phenylpent-1-enyl]cyclopentyl]-N-ethylhept-5-eneamide]
HPLC purity (hermetically placed under 40° C. for 1 day, listed as crystal A of Bimatoprost): 99.7% | HPLC purity (hermetically placed under 40° C. for 2 days, listed as crystal A of Bimatoprost): 99.7% | HPLC purity (hermetically placed under 40° C. for 3 days, listed as crystal A of Bimatoprost): 99.7% | HPLC purity (hermetically placed under 40° C. for 4 days, listed as crystal A of Bimatoprost): 99.7% | HPLC purity (sample before storage (initial), listed as crystal A of Bimatoprost): 99.7% | degradation in stability test: does not degrade

CCNC(=O)CCC/C=C\C[C@@H]1[C@@H](/C=C/[C@@H](O)CCc2ccccc2)[C@H](O)C[C@@H]1O [crystalline form B, (Z)-7-[(1R,2R,3R,5S)-3,5-dihydroxyl-2-[(E,3S)-3-hydroxyl-5-phenylpent-1-enyl]cyclopentyl]-N-ethylhept-5-eneamide]
HPLC purity (hermetically placed under 40° C. for 1 day, listed as crystal B of Bimatoprost): 99.4% | HPLC purity (hermetically placed under 40° C. for 2 days, listed as crystal B of Bimatoprost): 99.2% | HPLC purity (hermetically placed under 40° C. for 3 days, listed as crystal B of Bimatoprost): 99.1% | HPLC purity (hermetically placed under 40° C. for 4 days, listed as crystal B of Bimatoprost): 98.7% | HPLC purity (sample before storage (initial), listed as crystal B of Bimatoprost): 99.6% | degradation in stability test: obviously degrades
